According to ChEMBL document CHEMBL1142214, “Synergistic interaction between phenothiazines and antimicrobial agents against Burkholderia pseudomallei” (2007):
In brackets after ≈: the same amount, converted by molar mass.

How the values were obtained:
Assay type in all cases: functional
[1] = system: Burkholderia pseudomallei; assay: Antimicrobial activity against Burkholderia pseudomallei KHW in presence of 15.6 uM omeprazole
[2] = system: Burkholderia pseudomallei; assay: Antimicrobial activity against Burkholderia pseudomallei KHW in presence of 31.3 uM prochlorperazine
[3] = system: Burkholderia pseudomallei; assay: Antimicrobial activity against Burkholderia pseudomallei KHW in presence of 15.6 uM prochlorperazine
[4] = system: Burkholderia pseudomallei; assay: Antimicrobial activity against Burkholderia pseudomallei KHW in presence of 7.8 uM prochlorperazine
[5] = system: Burkholderia pseudomallei; assay: Antimicrobial activity against Burkholderia pseudomallei KHW in presence of 3.9 uM prochlorperazine
[6] = system: Burkholderia pseudomallei; assay: Antimicrobial activity against Burkholderia pseudomallei KHW in presence of 1000 uM promazine
[7] = system: Burkholderia pseudomallei; assay: Antimicrobial activity against Burkholderia pseudomallei KHW in presence of 500 uM promazine
[8] = system: Burkholderia pseudomallei; assay: Antimicrobial activity against Burkholderia pseudomallei KHW in presence of 250 uM promazine
[9] = system: Burkholderia pseudomallei; assay: Antimicrobial activity against Burkholderia pseudomallei KHW in presence of 125 uM promazine
[10] = system: Burkholderia pseudomallei; assay: Antimicrobial activity against Burkholderia pseudomallei KHW in presence of 62.5 uM promazine
[11] = system: Burkholderia pseudomallei; assay: Antimicrobial activity against Burkholderia pseudomallei KHW in presence of 31.3 uM promazine
[12] = system: Burkholderia pseudomallei; assay: Antimicrobial activity against Burkholderia pseudomallei KHW in presence of 15.6 uM promazine
[13] = system: Burkholderia pseudomallei; assay: Antimicrobial activity against Burkholderia pseudomallei KHW in presence of 7.8 uM promazine
[14] = system: Burkholderia pseudomallei; assay: Antimicrobial activity against Burkholderia pseudomallei KHW in presence of 3.9 uM promazine
[15] = system: Burkholderia pseudomallei; assay: Antimicrobial activity against Burkholderia pseudomallei KHW in presence of 1000 uM omeprazole
[16] = system: Burkholderia pseudomallei; assay: Antimicrobial activity against Burkholderia pseudomallei KHW in presence of 500 uM omeprazole
[17] = system: Burkholderia pseudomallei; assay: Antimicrobial activity against Burkholderia pseudomallei KHW in presence of 250 uM omeprazole
[18] = system: Burkholderia pseudomallei; assay: Antimicrobial activity against Burkholderia pseudomallei KHW in presence of 125 uM omeprazole
[19] = system: Burkholderia pseudomallei; assay: Antimicrobial activity against Burkholderia pseudomallei KHW in presence of 62.5 uM omeprazole
[20] = system: Burkholderia pseudomallei; assay: Antimicrobial activity against Burkholderia pseudomallei KHW in presence of 31.3 uM omeprazole
[21] = system: Burkholderia pseudomallei; assay: Antimicrobial activity against Burkholderia pseudomallei KHW in presence of 7.8 uM omeprazole
[22] = system: Burkholderia pseudomallei; assay: Antimicrobial activity against Burkholderia pseudomallei KHW in presence of 3.9 uM omeprazole
[23] = system: Burkholderia pseudomallei; assay: Antimicrobial activity against Burkholderia pseudomallei KHW in presence of 1000 uM chlorpromazine
[24] = system: Burkholderia pseudomallei; assay: Antimicrobial activity against Burkholderia pseudomallei KHW
[25] = system: Burkholderia pseudomallei; assay: Antimicrobial activity against Burkholderia pseudomallei KHW in presence of 1000 uM prochlorperazine
[26] = system: Burkholderia pseudomallei; assay: Antimicrobial activity against Burkholderia pseudomallei KHW in presence of 500 uM prochlorperazine
[27] = system: Burkholderia pseudomallei; assay: Antimicrobial activity against Burkholderia pseudomallei KHW in presence of 250 uM prochlorperazine
[28] = system: Burkholderia pseudomallei; assay: Antimicrobial activity against Burkholderia pseudomallei KHW in presence of 125 uM prochlorperazine
[29] = system: Burkholderia pseudomallei; assay: Antimicrobial activity against Burkholderia pseudomallei KHW in presence of 62.5 uM prochlorperazine
[30] = system: Burkholderia pseudomallei; assay: Antimicrobial activity against Burkholderia pseudomallei KHW in presence of 500 uM chlorpromazine
[31] = system: Burkholderia pseudomallei; assay: Antimicrobial activity against Burkholderia pseudomallei KHW in presence of 250 uM chlorpromazine
[32] = system: Burkholderia pseudomallei; assay: Antimicrobial activity against Burkholderia pseudomallei KHW in presence of 125 uM chlorpromazine
[33] = system: Burkholderia pseudomallei; assay: Antimicrobial activity against Burkholderia pseudomallei KHW in presence of 62.5 uM chlorpromazine
[34] = system: Burkholderia pseudomallei; assay: Antimicrobial activity against Burkholderia pseudomallei KHW in presence of 31.3 uM chlorpromazine
[35] = system: Burkholderia pseudomallei; assay: Antimicrobial activity against Burkholderia pseudomallei KHW in presence of 15.6 uM chlorpromazine
[36] = system: Burkholderia pseudomallei; assay: Antimicrobial activity against Burkholderia pseudomallei KHW in presence of 7.8 uM chlorpromazine
[37] = system: Burkholderia pseudomallei; assay: Antimicrobial activity against Burkholderia pseudomallei KHW in presence of 3.9 uM chlorpromazine

Which results are given for `CO[C@H]1C[C@H](O[C@H]2[C@H](C)[C@@H](O[C@@H]3O[C@H](C)C[C@H](N(C)C)[C@H]3O)[C@@H](C)C[C@@]3(CO3)C(=O)[C@H](C)[C@@H](O)[C@@H](C)[C@@H](C)OC(=O)[C@@H]2C)O[C@@H](C)[C@@H]1O` [OLEANDOMYCIN]?
MIC [1]: > 2000 mg/L; MIC [2]: 512 mg/L; MIC [3]: 512 mg/L; MIC [4]: > 2000 mg/L; MIC [5]: > 2000 mg/L; MIC [6]: 0.5 mg/L; MIC [7]: 256 mg/L; MIC [8]: > 2000 mg/L; MIC [9]: > 2000 mg/L; MIC [10]: > 2000 mg/L; MIC [11]: > 2000 mg/L; MIC [12]: > 2000 mg/L; MIC [13]: > 2000 mg/L; MIC [14]: > 2000 mg/L; MIC [15]: < 0.25 mg/L; MIC [16]: > 2000 mg/L; MIC [17]: > 2000 mg/L; MIC [18]: > 2000 mg/L; MIC [19]: > 2000 mg/L; MIC [20]: > 2000 mg/L; MIC [21]: > 2000 mg/L; MIC [22]: > 2000 mg/L; MIC [23]: < 0.25 mg/L; MIC [24]: > 2000 mg/L; MIC [25]: 64 mg/L; MIC [26]: 64 mg/L; MIC [27]: 128 mg/L; MIC [28]: 256 mg/L; MIC [29]: 256 mg/L; MIC [30]: 128 mg/L; MIC [31]: 256 mg/L; MIC [32]: 512 mg/L; MIC [33]: 1020 mg/L; MIC [34]: > 2000 mg/L; MIC [35]: > 2000 mg/L; MIC [36]: > 2000 mg/L; MIC [37]: > 2000 mg/L

How did the MIC [1] turn out when `CN[C@@H]1[C@H](O[C@H]2[C@H](O[C@H]3[C@H](O)[C@@H](O)[C@H](N=C(N)N)[C@@H](O)[C@@H]3N=C(N)N)O[C@@H](C)[C@]2(O)C=O)O[C@@H](CO)[C@H](O)[C@H]1O` [STREPTOMYCIN] was run?
Its MIC is 1020 mg/L.

What about the MIC [2] of the same compound?
The MIC was 1020 mg/L.

What about the MIC [3] of the same compound?
The MIC was 1020 mg/L.

And the MIC [4]?
Its MIC is 1020 mg/L.

What about the MIC [5] of the same compound?
The MIC was 1020 mg/L.

What about the MIC [6] of the same compound?
Its MIC is 0.5 mg/L.

And the MIC [7]?
The MIC was 516 mg/L.

And the MIC [8]?
The MIC was 1020 mg/L.

What about the MIC [9] of the same compound?
Its MIC is 1020 mg/L.

And the MIC [10]?
The MIC was 1020 mg/L.

What about the MIC [11] of the same compound?
The MIC was 1020 mg/L.

What about the MIC [12] of the same compound?
Its MIC is 1020 mg/L.

What about the MIC [13] of the same compound?
The MIC was 1020 mg/L.

And the MIC [14]?
Its MIC is 1020 mg/L.

What about the MIC [15] of the same compound?
The MIC was less than 0.25 mg/L.

What about the MIC [16] of the same compound?
The MIC was 1020 mg/L.

What about the MIC [17] of the same compound?
Its MIC is 1020 mg/L.

What about the MIC [18] of the same compound?
Its MIC is 1020 mg/L.

What about the MIC [19] of the same compound?
The MIC was 1020 mg/L.

And the MIC [20]?
Its MIC is 1020 mg/L.

What about the MIC [21] of the same compound?
Its MIC is 1020 mg/L.

And the MIC [22]?
The MIC was 1020 mg/L.

What about the MIC [23] of the same compound?
The MIC was less than 0.25 mg/L.

What about the MIC [24] of the same compound?
The MIC was 1020 mg/L (≈ 1760 µM).

What about the MIC [25] of the same compound?
Its MIC is 256 mg/L.

And the MIC [26]?
Its MIC is 256 mg/L.

And the MIC [27]?
Its MIC is 512 mg/L.

And the MIC [28]?
Its MIC is 1020 mg/L.

What about the MIC [29] of the same compound?
The MIC was 1020 mg/L.

And the MIC [30]?
Its MIC is less than 0.25 mg/L.

And the MIC [31]?
Its MIC is 1020 mg/L.

And the MIC [32]?
The MIC was 1020 mg/L.

What about the MIC [33] of the same compound?
The MIC was 1020 mg/L.

And the MIC [34]?
Its MIC is 1020 mg/L.

What about the MIC [35] of the same compound?
Its MIC is 1020 mg/L.

What about the MIC [36] of the same compound?
Its MIC is 1020 mg/L.

What about the MIC [37] of the same compound?
Its MIC is 1020 mg/L.

With `CC[C@H]1OC(=O)[C@H](C)[C@@H](O[C@H]2C[C@@](C)(OC)[C@@H](O)[C@H](C)O2)[C@H](C)[C@@H](O[C@@H]2O[C@H](C)C[C@H](N(C)C)[C@H]2O)[C@](C)(O)C[C@@H](C)CN(C)[C@H](C)[C@@H](O)[C@]1(C)O` [AZITHROMYCIN] as the compound, how does the MIC [1] read?
Its MIC is 32 mg/L.

What about the MIC [2] of the same compound?
The MIC was 32 mg/L.

What about the MIC [3] of the same compound?
The MIC was 32 mg/L.

What about the MIC [4] of the same compound?
Its MIC is 32 mg/L.

And the MIC [5]?
Its MIC is 32 mg/L.

What about the MIC [6] of the same compound?
Its MIC is less than 0.25 mg/L.

And the MIC [7]?
The MIC was 16 mg/L.

What about the MIC [8] of the same compound?
The MIC was 32 mg/L.

What about the MIC [9] of the same compound?
Its MIC is 32 mg/L.

What about the MIC [10] of the same compound?
The MIC was 32 mg/L.

What about the MIC [11] of the same compound?
The MIC was 32 mg/L.

What about the MIC [12] of the same compound?
The MIC was 32 mg/L.

What about the MIC [13] of the same compound?
The MIC was 32 mg/L.

And the MIC [14]?
The MIC was 32 mg/L.

And the MIC [15]?
Its MIC is 16 mg/L.

What about the MIC [16] of the same compound?
Its MIC is 16 mg/L.

And the MIC [17]?
Its MIC is 32 mg/L.

What about the MIC [18] of the same compound?
The MIC was 32 mg/L.

And the MIC [19]?
The MIC was 32 mg/L.

And the MIC [20]?
Its MIC is 32 mg/L.

And the MIC [21]?
The MIC was 32 mg/L.

And the MIC [22]?
Its MIC is 32 mg/L.

What about the MIC [23] of the same compound?
Its MIC is less than 0.25 mg/L.

What about the MIC [24] of the same compound?
Its MIC is 32 mg/L (≈ 42.7 µM).

And the MIC [25]?
Its MIC is less than 0.25 mg/L.

And the MIC [26]?
Its MIC is less than 0.25 mg/L.

And the MIC [27]?
Its MIC is less than 0.25 mg/L.

And the MIC [28]?
Its MIC is 16 mg/L.

And the MIC [29]?
Its MIC is 32 mg/L.

What about the MIC [30] of the same compound?
The MIC was 8 mg/L.

What about the MIC [31] of the same compound?
The MIC was 16 mg/L.

What about the MIC [32] of the same compound?
The MIC was 16 mg/L.

What about the MIC [33] of the same compound?
Its MIC is 32 mg/L.

And the MIC [34]?
Its MIC is 32 mg/L.

And the MIC [35]?
The MIC was 32 mg/L.

What about the MIC [36] of the same compound?
Its MIC is 32 mg/L.

And the MIC [37]?
Its MIC is 32 mg/L.
